Tests used:
[1] = molecular target: TYK2 (Homo sapiens (Human), UniProt P29597); assay: Biochemical JAK kinase assay (LanthaScreen), Tyk2; conditions: read-out: Tyk2 pKi (converted)
Procedure, shortened: (§1)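 LanthaScreen format: phospho-STAT1 (pTyr701) detected with 2 nM Tb antibody after 10 mM EDTA quench. Kinase step used Km-level ATP and 200 nM STAT1 peptide, 1 h at ambient after 1 h pre-incubation. Inhibition fitted to IC50, reported as pKi.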

[2] = molecular target: JAK2 (Homo sapiens (Human), UniProt O60674); assay: Biochemical JAK kinase assay (LanthaScreen), JAK2; conditions: for Ki: read-out: JAK2 pKi (converted)
Procedure, shortened: as §1

[3] = tested on: IL-13 induced STAT6 phosphorylation in BEAS-2B human lung epithelial cells; assay: Cellular JAKI potency assay (BEAS-2B); assay type: cell-based; conditions: Homo sapiens, BEAS-2B, BEAS-2B cells, read-out: BEAS2B pIC50 (converted)
Procedure, shortened: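 BEAS-2B cells were preincubated with compound (0.1% DMSO) in HBSS/HEPES/BSA for 1 h at 37 °C, then stimulated with IL-13 (80 ng/mL before addition) for 30 min. After lysis, pSTAT6 (Tyr641) was quantified by AlphaLISA SureFire; IC50 from a 4-parameter fit of percent inhibition, reported as pIC50.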

[4] = molecular target: JAK3 (Homo sapiens (Human), UniProt P52333); assay: Biochemical JAK kinase assay (LanthaScreen), JAK3; conditions: read-out: JAK3 pKi (converted)
Procedure, shortened: as §1

[5] = Pharmacokinetics in plasma and lung in mouse after oral aspiration administration; assay type: in vivo; conditions: male CD1 mice; for Lung Tissue AUC(0-24) / AUC(0-t): 0.2 mg/mL, two 25 μL increments; for Lung Tissue:Plasma AUC ratio: lung AUC to plasma AUC; for AUC(0-t): mouse, inhaled or intranasal, 0.01 mg/mouse, plasma, read-out: Plasma AUC(0-24)
Procedure, shortened: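 Male CD1 mice given 0.2 mg/mL compound in 20% propylene glycol/pH 4 citrate buffer, two 25 μL increments by oral aspiration into the trachea under isoflurane. Plasma and lung homogenate sampled 0.167–24 hr and measured by LC-MS/MS. Non-compartmental analysis gave AUC(0-inf); lung-to-plasma ratio from lung (μg*hr/g) over plasma (μg*hr/mL) AUC.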

[6] = molecular target: JAK1 (Homo sapiens (Human), UniProt P23458); assay: Biochemical JAK kinase assay (LanthaScreen), JAK1; conditions: for Ki: read-out: JAK1 pKi (converted)
Procedure, shortened: as §1

Sequence of JAK2 (O60674 whole entry): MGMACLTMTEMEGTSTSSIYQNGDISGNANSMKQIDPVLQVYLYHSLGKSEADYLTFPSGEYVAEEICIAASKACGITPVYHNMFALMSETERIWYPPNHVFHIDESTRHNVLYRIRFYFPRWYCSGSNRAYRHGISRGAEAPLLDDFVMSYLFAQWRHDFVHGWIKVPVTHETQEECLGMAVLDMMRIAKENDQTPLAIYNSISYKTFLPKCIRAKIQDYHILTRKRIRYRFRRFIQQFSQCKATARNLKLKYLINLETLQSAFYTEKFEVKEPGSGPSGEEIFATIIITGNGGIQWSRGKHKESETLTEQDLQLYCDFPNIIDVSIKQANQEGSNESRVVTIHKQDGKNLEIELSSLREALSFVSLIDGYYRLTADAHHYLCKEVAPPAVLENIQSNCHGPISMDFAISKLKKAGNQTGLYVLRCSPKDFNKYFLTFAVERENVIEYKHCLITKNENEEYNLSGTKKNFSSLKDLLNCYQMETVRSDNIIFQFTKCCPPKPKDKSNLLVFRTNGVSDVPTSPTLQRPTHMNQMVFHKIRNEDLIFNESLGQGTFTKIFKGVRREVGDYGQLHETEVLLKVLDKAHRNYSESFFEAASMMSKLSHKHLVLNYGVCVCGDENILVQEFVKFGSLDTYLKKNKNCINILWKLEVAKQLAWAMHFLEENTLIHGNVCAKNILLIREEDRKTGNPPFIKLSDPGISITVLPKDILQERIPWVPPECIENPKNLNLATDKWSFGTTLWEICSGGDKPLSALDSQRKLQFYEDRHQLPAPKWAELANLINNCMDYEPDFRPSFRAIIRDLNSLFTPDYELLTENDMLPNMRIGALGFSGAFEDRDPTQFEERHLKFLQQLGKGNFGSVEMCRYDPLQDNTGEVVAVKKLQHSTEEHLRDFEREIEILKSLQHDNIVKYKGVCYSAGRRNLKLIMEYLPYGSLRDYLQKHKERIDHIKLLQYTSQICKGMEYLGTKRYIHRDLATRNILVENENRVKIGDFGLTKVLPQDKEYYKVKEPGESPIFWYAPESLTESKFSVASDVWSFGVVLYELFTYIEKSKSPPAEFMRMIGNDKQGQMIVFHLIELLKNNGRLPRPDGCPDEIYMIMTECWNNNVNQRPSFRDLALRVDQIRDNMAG
Sequence of TYK2 (P29597 whole entry): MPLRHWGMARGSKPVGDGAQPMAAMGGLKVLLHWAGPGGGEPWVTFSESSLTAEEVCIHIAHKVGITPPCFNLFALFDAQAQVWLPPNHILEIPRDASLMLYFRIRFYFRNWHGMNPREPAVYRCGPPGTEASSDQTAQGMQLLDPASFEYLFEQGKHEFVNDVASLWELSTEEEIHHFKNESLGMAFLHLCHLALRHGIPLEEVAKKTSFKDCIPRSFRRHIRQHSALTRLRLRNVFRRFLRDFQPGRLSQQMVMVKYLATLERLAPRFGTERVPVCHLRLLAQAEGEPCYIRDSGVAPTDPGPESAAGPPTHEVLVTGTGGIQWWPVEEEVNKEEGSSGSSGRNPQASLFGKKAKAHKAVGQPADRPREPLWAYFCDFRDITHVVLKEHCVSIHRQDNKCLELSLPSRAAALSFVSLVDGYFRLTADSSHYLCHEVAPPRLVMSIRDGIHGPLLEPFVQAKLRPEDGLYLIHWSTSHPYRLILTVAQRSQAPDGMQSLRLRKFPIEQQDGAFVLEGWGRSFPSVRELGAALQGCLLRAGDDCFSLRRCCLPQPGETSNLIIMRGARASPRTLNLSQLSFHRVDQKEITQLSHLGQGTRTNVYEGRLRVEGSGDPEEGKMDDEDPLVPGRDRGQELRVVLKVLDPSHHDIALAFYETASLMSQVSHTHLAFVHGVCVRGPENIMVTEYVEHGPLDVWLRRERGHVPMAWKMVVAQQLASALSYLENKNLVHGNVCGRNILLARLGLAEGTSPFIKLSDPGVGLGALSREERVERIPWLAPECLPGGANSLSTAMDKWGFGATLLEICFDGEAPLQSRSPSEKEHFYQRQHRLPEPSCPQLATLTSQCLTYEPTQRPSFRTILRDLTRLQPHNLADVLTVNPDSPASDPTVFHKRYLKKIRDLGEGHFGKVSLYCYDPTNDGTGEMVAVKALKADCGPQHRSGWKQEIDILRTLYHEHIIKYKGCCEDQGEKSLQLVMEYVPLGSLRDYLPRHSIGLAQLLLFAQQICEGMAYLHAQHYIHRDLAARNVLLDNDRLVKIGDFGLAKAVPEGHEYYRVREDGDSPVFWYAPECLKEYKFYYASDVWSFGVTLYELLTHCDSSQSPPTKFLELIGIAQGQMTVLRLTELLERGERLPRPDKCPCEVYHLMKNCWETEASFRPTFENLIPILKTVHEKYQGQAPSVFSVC
Sequence of JAK3 (P52333 whole entry): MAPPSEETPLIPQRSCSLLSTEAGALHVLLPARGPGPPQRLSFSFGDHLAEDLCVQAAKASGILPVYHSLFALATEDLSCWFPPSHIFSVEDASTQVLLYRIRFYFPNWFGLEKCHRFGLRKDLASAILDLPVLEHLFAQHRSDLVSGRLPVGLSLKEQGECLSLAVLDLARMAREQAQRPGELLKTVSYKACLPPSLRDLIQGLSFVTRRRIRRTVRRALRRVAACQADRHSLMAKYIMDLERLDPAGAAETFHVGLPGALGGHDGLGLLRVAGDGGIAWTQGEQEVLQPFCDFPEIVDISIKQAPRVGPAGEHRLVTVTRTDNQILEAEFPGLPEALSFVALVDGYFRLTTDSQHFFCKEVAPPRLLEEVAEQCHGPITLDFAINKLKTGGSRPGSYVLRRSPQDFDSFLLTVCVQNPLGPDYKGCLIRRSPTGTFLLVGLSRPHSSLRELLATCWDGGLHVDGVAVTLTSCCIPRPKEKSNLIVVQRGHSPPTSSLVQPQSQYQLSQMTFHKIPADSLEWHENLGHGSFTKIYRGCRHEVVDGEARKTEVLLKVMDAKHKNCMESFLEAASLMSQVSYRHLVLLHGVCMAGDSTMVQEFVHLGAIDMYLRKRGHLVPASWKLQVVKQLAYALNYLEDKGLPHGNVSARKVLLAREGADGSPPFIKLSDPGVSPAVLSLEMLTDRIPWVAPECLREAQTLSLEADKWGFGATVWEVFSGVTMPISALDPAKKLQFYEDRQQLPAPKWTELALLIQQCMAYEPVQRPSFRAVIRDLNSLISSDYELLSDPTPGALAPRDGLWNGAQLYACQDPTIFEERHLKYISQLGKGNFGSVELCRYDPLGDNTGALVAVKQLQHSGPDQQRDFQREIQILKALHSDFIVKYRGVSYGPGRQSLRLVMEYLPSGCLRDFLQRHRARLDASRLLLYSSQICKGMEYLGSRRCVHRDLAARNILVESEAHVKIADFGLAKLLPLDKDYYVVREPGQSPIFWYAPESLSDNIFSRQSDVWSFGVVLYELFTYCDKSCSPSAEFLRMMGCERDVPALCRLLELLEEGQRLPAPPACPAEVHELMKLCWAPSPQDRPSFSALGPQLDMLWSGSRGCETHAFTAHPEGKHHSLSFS
Sequence of JAK1 (P23458 whole entry): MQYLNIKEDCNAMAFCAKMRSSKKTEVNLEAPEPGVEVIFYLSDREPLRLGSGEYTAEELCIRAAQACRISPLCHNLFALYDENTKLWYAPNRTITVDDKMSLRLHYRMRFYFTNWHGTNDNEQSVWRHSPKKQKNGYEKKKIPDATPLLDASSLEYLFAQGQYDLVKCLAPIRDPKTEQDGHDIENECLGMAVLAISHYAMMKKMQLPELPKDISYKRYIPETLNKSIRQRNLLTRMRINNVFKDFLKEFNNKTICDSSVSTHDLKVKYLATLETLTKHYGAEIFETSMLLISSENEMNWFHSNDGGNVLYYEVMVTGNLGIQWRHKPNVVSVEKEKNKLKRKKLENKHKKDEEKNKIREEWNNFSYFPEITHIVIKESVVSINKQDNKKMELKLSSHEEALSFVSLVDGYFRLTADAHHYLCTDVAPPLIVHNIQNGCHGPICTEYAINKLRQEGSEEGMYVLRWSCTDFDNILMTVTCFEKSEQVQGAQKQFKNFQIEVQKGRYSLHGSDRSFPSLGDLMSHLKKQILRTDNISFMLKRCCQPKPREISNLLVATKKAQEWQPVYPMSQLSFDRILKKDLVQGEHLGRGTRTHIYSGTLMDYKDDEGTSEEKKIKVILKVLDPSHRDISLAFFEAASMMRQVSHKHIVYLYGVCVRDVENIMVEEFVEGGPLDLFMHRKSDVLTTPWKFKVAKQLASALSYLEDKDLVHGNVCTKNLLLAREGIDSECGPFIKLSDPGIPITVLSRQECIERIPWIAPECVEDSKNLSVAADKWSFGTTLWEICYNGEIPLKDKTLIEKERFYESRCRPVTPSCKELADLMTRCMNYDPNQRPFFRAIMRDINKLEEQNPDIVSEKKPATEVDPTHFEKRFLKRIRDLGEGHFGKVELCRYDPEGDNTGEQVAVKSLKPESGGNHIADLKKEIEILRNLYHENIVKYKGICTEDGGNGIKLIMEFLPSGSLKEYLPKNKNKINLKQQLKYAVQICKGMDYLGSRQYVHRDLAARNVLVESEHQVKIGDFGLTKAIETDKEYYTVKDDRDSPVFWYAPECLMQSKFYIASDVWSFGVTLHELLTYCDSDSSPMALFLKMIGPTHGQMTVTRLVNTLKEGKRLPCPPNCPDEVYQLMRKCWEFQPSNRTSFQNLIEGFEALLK

| Compound | Ki [1] | JAK2 pKi [2] | IC50 [3] | Ki [4] | Lung Tissue AUC(0-24) [5] | Lung Tissue:Plasma AUC ratio [5] | AUC(0-t) [5] | Ki [6] | Ki [2] | JAK1 pKi [6] |
| --- | --- | --- | --- | --- | --- | --- | --- | --- | --- | --- |
| CCc1cc(O)ccc1-c1ccc2c(-c3nc(C4=CCN(C5CCN(C)CC5)C4)c[nH]3)n[nH]c2c1F [Example 201] | 1 to 10 nM | A (A represents a pKi value ≥10 (Ki≤0.1 nM)) | 3.16 to 10 nM | 0.1 to 1 nM | A (For the Lung Tissue AUC(0-24), A denotes a value between 100 and 200) | B (B denotes a ratio between 200 and 300) | 500 to 1000 ng·h/mL | 0.1 to 1 nM |  |  |
| CCc1cc(O)ccc1-c1ccc2c(-c3nc(C4=CCN(C5CN(C)C5)C4)c[nH]3)n[nH]c2c1F [Example 202] | 1 to 10 nM | A (A represents a pKi value ≥10 (Ki≤0.1 nM)) | 10 to 31.6 nM | 0.1 to 1 nM | B (B denotes a value between 50 and 100) | D (D denotes a ratio between 50 and 100) | 500 to 1000 ng·h/mL | 0.1 to 1 nM |  |  |
| CCc1cc(O)ccc1-c1ccc2c(-c3nc(C4=C(C)CNCC4)c[nH]3)n[nH]c2c1F [Example 227] | 1 to 10 nM |  | 10 to 31.6 nM | 1 to 10 nM | A (For the Lung Tissue AUC(0-24), A denotes a value between 100 and 200) | C (C denotes a ratio between 100 and 200) | 500 to 1000 ng·h/mL | 0.1 to 1 nM | 0.1 to 1 nM |  |
| CCc1cc(O)ccc1-c1ccc2c(-c3nc(C4=CC[C@H](C)NC4)c[nH]3)n[nH]c2c1F [Example 234] | 1 to 10 nM |  | 3.16 to 10 nM | 1 to 10 nM | B (B denotes a value between 50 and 100) | C (C denotes a ratio between 100 and 200) | < 500 ng·h/mL |  | 0.1 to 1 nM | A (A represents a pKi value ≥10 (Ki≤0.1 nM)) |
| CCc1cc(O)ccc1-c1ccc2c(-c3nc(C4=CC[C@@H](C)NC4)c[nH]3)n[nH]c2c1F [Example 235] | 1 to 10 nM | A (A represents a pKi value ≥10 (Ki≤0.1 nM)) | 10 to 31.6 nM | 0.1 to 1 nM | C (C denotes a value between 9 and 50) | C (C denotes a ratio between 100 and 200) | < 500 ng·h/mL | 0.1 to 1 nM |  |  |
| CCc1cc(O)ccc1-c1ccc2c(-c3nc(C4=C[C@@H](COC)NC4)c[nH]3)n[nH]c2c1F [Example 246] | 10 to 100 nM |  | 10 to 31.6 nM | 1 to 10 nM | C (C denotes a value between 9 and 50) | D (D denotes a ratio between 50 and 100) | < 500 ng·h/mL | 0.1 to 1 nM | 0.1 to 1 nM |  |
